# Measurements reported in ChEMBL document CHEMBL1134001, “Novel inhibitors of the enzyme estrone sulfatase (ES)” (Bioorg Med Chem Lett, 2001).
# Key:
# Steryl-sulfatase = target: T1, Steryl-sulfatase (Homo sapiens, UniProt P08842); assay: Inhibition of Estrone sulfatase
# T1 sequence (P08842 whole entry): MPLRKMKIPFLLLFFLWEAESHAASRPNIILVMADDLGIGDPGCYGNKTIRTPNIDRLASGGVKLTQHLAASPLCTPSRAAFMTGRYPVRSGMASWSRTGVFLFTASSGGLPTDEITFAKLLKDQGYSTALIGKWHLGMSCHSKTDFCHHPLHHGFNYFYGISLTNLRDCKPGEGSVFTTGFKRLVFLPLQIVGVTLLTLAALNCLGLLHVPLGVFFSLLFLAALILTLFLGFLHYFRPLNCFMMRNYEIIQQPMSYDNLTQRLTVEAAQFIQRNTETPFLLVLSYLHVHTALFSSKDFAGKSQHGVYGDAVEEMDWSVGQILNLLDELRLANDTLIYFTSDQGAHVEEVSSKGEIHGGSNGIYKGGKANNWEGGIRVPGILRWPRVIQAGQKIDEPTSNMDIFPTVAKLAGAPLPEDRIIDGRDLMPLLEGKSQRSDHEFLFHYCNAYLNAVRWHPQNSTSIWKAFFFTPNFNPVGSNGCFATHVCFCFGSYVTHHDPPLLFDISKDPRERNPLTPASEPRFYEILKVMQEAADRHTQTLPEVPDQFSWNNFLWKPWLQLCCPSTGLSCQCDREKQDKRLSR
# [1] = target: T2, Steryl-sulfatase (Homo sapiens) (UniProt P08842); assay: Relative potency compared to EMATE against Estrone sulfatase
# T2 sequence (whole entry): T1 sequence (P08842 whole entry)
# [2] = target: T2, Steryl-sulfatase (Homo sapiens); assay: Relative potency compared to COUMATE against Estrone sulfatase
# [3] = target: T2, Steryl-sulfatase (Homo sapiens)
# Description: (§1) Relative potency against Estrone sulfatase
# [4] = target: T2, Steryl-sulfatase (Homo sapiens); remark: listed apart in the source
# Description: as §1
# [5] = target: T2, Steryl-sulfatase (Homo sapiens); remark: listed apart in the source
Structure (SMILES),IC50 (Steryl-sulfatase),Potency [1],Potency [2],Potency [4],Potency [5],Potency [3]
CCCC(=O)c1ccc(OS(N)(=O)=O)cc1,39.8 µM,0.0126,0.301,,,
NS(=O)(=O)Oc1ccc(C=O)cc1,254 µM,0.0019,0.0472,,,
"C[C@]12CC[C@@H]3c4ccc(OS(N)(=O)=O)cc4CCC3[C@@H]1CCC2=O (single isomer, unassigned) [EMATE]",0.5 µM,,24,,,1
CC(=O)c1ccc(OS(N)(=O)=O)cc1,302 µM,0.0016,0.0397,,,
NS(=O)(=O)Oc1ccc(C(=O)/C=C/c2ccccc2)cc1,263 µM,0.0019,0.0456,,,
NS(=O)(=O)Oc1ccc(C(=O)c2ccccc2)cc1,63 µM,0.0079,0.191,,,

# More lines, main results first:
IC50 (Steryl-sulfatase),Potency [1],Potency [2],Potency [4],Potency [5],Structure (SMILES),Potency [3]
33 µM,0.0152,0.364,,,NS(=O)(=O)Oc1ccc(C(=O)Cc2ccccc2)cc1,
3.4 µM,0.147,3.53,,,CCCCCCCCC(=O)c1ccc(OS(N)(=O)=O)cc1,
5 µM,0.1,2.4,,,CCCCCCC(=O)c1ccc(OS(N)(=O)=O)cc1,
20.9 µM,0.0239,0.574,,,CCCCC(=O)c1ccc(OS(N)(=O)=O)cc1,
13 µM,0.0385,0.923,,,CCCCCCCCCC(=O)c1ccc(OS(N)(=O)=O)cc1,
12 µM,,,1,0.0417,Cc1cc(=O)oc2cc(OS(N)(=O)=O)ccc12,
5.6 µM,0.0893,2.14,,,CCCCCCCC(=O)c1ccc(OS(N)(=O)=O)cc1,
